# In ChEMBL document CHEMBL3885881, “DrugMatrix”:
# Species on record: Rattus norvegicus
# Test: DrugMatrix - Regimen: Daily Repeat
# Assay type: toxicity, organism-based, Sprague-Dawley
# Set-up: regimen Daily Repeat, gender Male, age 6-8 weeks
# Settings: in vivo, iv, vehicle 100 % SALINE; for ABSOLUTE BASOPHIL / ABSOLUTE EOSINOPHIL / ABSOLUTE LYMPHOCYTE / ABSOLUTE MONOCYTE / ABSOLUTE SEGMENTED NEUTROPHIL / BASOPHIL / EOSINOPHIL / ERYTHROCYTE COUNT / HEMATOCRIT / HEMOGLOBIN / LEUKOCYTE COUNT / LYMPHOCYTE / MEAN CORPUSCULAR HEMOGLOBIN / MEAN CORPUSCULAR HEMOGLOBIN CONCENTRATION / MEAN CORPUSCULAR VOLUME / MONOCYTE / NEUTROPHIL / NUCLEATED RED BLOOD CELLS / PLATELET COUNT: tissue Blood; for ALANINE AMINOTRANSFERASE / ALBUMIN / ALKALINE PHOSPHATASE / ASPARTATE AMINOTRANSFERASE / BLOOD UREA NITROGEN / CARBON DIOXIDE / CHLORIDE / CHOLESTEROL / CREATINE PHOSPHOKINASE / CREATININE / GLUCOSE / LACTATE DEHYDROGENASE / LIPASE / PHOSPHORUS / POTASSIUM / SODIUM / TOTAL BILIRUBIN / TOTAL PROTEIN / URIC ACID: tissue Plasma
# [1] = 0.005 mg/kg, 120 h, dose level Low, time 5 day
# [2] = 0.05 mg/kg, 72 h, dose level High, time 3 day
# [3] = 0.05 mg/kg, 120 h, dose level High, time 5 day
structure (smiles),measurement,setting,value
CC(=O)O[C@H]1C[C@@H]2CC[C@@H]3[C@H](CC[C@@]4(C)[C@H]3C[C@H]([N+]3(C)CCCCC3)[C@@H]4OC(C)=O)[C@@]2(C)C[C@@H]1N1CCCCC1.[Br-] [VECURONIUM BROMIDE],ABSOLUTE BASOPHIL,[1],0 CELLS/uL
same,ABSOLUTE EOSINOPHIL,[1],82.33 CELLS/uL
same,ABSOLUTE LYMPHOCYTE,[1],12022.67 CELLS/uL
same,ABSOLUTE MONOCYTE,[1],265.33 CELLS/uL
same,ABSOLUTE SEGMENTED NEUTROPHIL,[1],796.33 CELLS/uL
same,BASOPHIL,[1],0%
same,EOSINOPHIL,[1],0.67%
same,ERYTHROCYTE COUNT,[1],5.48 x10E6/uL
same,HEMATOCRIT,[1],34.87%
same,HEMOGLOBIN,[1],13.83 G/DL
same,LEUKOCYTE COUNT,[1],13.17 x10E3/uL
same,LYMPHOCYTE,[1],91%
same,MEAN CORPUSCULAR HEMOGLOBIN,[1],25.23 pg
same,MEAN CORPUSCULAR HEMOGLOBIN CONCENTRATION,[1],39.7 G/DL
same,MEAN CORPUSCULAR VOLUME,[1],63.63 fL
same,MONOCYTE,[1],2%
same,NEUTROPHIL,[1],6.33%
same,NUCLEATED RED BLOOD CELLS,[1],0 /100WBC
same,PLATELET COUNT,[1],1117 x10E3/uL
same,ALANINE AMINOTRANSFERASE,[1],68.67 u/L
same,ALBUMIN,[1],4.17 G/DL
same,ALKALINE PHOSPHATASE,[1],419 u/L
same,ASPARTATE AMINOTRANSFERASE,[1],85 u/L
same,BLOOD UREA NITROGEN,[1],19.33 mg/dL
same,CARBON DIOXIDE,[1],30 mmol/L
same,CHLORIDE,[1],101.33 MEQ/L
same,CHOLESTEROL,[1],79 mg/dL
same,CREATINE PHOSPHOKINASE,[1],251.67 u/L
same,CREATININE,[1],0.25 mg/dL
same,GLUCOSE,[1],172 mg/dL
same,LACTATE DEHYDROGENASE,[1],116.67 u/L
same,LIPASE,[1],10.33 u/L
same,PHOSPHORUS,[1],12 mg/dL
same,POTASSIUM,[1],5.82 MEQ/L
same,SODIUM,[1],144.07 MEQ/L
same,TOTAL BILIRUBIN,[1],0.2 mg/dL
same,TOTAL PROTEIN,[1],5.9 G/DL
same,URIC ACID,[1],1.27 mg/dL
same,ABSOLUTE BASOPHIL,[2],0 CELLS/uL
same,ABSOLUTE EOSINOPHIL,[2],0 CELLS/uL
same,ABSOLUTE LYMPHOCYTE,[2],14697.33 CELLS/uL
same,ABSOLUTE MONOCYTE,[2],387 CELLS/uL
same,ABSOLUTE SEGMENTED NEUTROPHIL,[2],1049 CELLS/uL
same,BASOPHIL,[2],0%
same,EOSINOPHIL,[2],0%
same,ERYTHROCYTE COUNT,[2],5.35 x10E6/uL
same,HEMATOCRIT,[2],33.93%
same,HEMOGLOBIN,[2],13.67 G/DL
same,LEUKOCYTE COUNT,[2],16.13 x10E3/uL
same,LYMPHOCYTE,[2],91.33%
same,MEAN CORPUSCULAR HEMOGLOBIN,[2],25.53 pg
same,MEAN CORPUSCULAR HEMOGLOBIN CONCENTRATION,[2],40.27 G/DL
same,MEAN CORPUSCULAR VOLUME,[2],63.37 fL
same,MONOCYTE,[2],2.33%
same,NEUTROPHIL,[2],6.33%
same,NUCLEATED RED BLOOD CELLS,[2],0 /100WBC
same,PLATELET COUNT,[2],1089.33 x10E3/uL
same,ALANINE AMINOTRANSFERASE,[2],70.67 u/L
same,ALBUMIN,[2],4.17 G/DL
same,ALKALINE PHOSPHATASE,[2],375.33 u/L
same,ASPARTATE AMINOTRANSFERASE,[2],108 u/L
same,BLOOD UREA NITROGEN,[2],15.67 mg/dL
same,CARBON DIOXIDE,[2],28.33 mmol/L
same,CHLORIDE,[2],103.33 MEQ/L
same,CHOLESTEROL,[2],83 mg/dL
same,CREATINE PHOSPHOKINASE,[2],435 u/L
same,CREATININE,[2],0.25 mg/dL
same,GLUCOSE,[2],145.33 mg/dL
same,LACTATE DEHYDROGENASE,[2],607.67 u/L
same,LIPASE,[2],12 u/L
same,PHOSPHORUS,[2],12.1 mg/dL
same,POTASSIUM,[2],6.48 MEQ/L
same,SODIUM,[2],142.47 MEQ/L
same,TOTAL BILIRUBIN,[2],0.17 mg/dL
same,TOTAL PROTEIN,[2],5.87 G/DL
same,URIC ACID,[2],1.4 mg/dL
same,ABSOLUTE BASOPHIL,[3],0 CELLS/uL
same,ABSOLUTE EOSINOPHIL,[3],0 CELLS/uL
same,ABSOLUTE LYMPHOCYTE,[3],14510.33 CELLS/uL
same,ABSOLUTE MONOCYTE,[3],51 CELLS/uL
same,ABSOLUTE SEGMENTED NEUTROPHIL,[3],705.33 CELLS/uL
same,BASOPHIL,[3],0%
same,EOSINOPHIL,[3],0%
same,ERYTHROCYTE COUNT,[3],5.55 x10E6/uL
same,HEMATOCRIT,[3],33.37%
same,HEMOGLOBIN,[3],13.47 G/DL
same,LEUKOCYTE COUNT,[3],15.27 x10E3/uL
same,LYMPHOCYTE,[3],95%
same,MEAN CORPUSCULAR HEMOGLOBIN,[3],24.3 pg
same,MEAN CORPUSCULAR HEMOGLOBIN CONCENTRATION,[3],40.33 G/DL
same,MEAN CORPUSCULAR VOLUME,[3],60.17 fL
same,MONOCYTE,[3],0.33%
same,NEUTROPHIL,[3],4.67%
same,NUCLEATED RED BLOOD CELLS,[3],0 /100WBC
same,PLATELET COUNT,[3],1036.67 x10E3/uL
same,ALANINE AMINOTRANSFERASE,[3],50.33 u/L
same,ALBUMIN,[3],3.93 G/DL
same,ALKALINE PHOSPHATASE,[3],347.67 u/L
same,ASPARTATE AMINOTRANSFERASE,[3],100.33 u/L
same,BLOOD UREA NITROGEN,[3],18 mg/dL
same,CARBON DIOXIDE,[3],26 mmol/L
same,CHLORIDE,[3],104 MEQ/L
same,CHOLESTEROL,[3],57.67 mg/dL
same,CREATINE PHOSPHOKINASE,[3],706.67 u/L
same,CREATININE,[3],0.15 mg/dL
same,GLUCOSE,[3],145.67 mg/dL
same,LACTATE DEHYDROGENASE,[3],811.33 u/L
same,LIPASE,[3],9.67 u/L
same,PHOSPHORUS,[3],10.97 mg/dL
same,POTASSIUM,[3],6.19 MEQ/L
same,SODIUM,[3],144.13 MEQ/L
same,TOTAL BILIRUBIN,[3],0.2 mg/dL
same,TOTAL PROTEIN,[3],5.53 G/DL
same,URIC ACID,[3],1.17 mg/dL
